The record followed here is patent US20090176817A1, “Method of Treatment of Diarrhea-Predominant Irritable Bowel Syndrome in a Subject” (priority 2005, published 2009).

One data set is described as follows: clinical. The following applies: both sexes, human, serum, % free in serum. The format is in vitro ADME. Here is the method:
Steady state serum samples for measurement of cilansetron protein binding were collected at predose, and 1 and 1.5 hours postdose on Day 6.

The format of data set [1] is in vitro ADME. The following applies: human. Here is the method: Protein binding was also evaluated in an in vitro study in human, mouse, rat, and dog plasma using equilibrium dialysis (12-14K molecular weight cut-off membrane). […] This study also measured the binding of (^14C)-cilansetron to purified human serum albumin at cilansetron concentrations ranging from 30-3000 ng/mL and to purified human alpha-1 acid glycoprotein (AAG) at concentrations ranging from 30-10000 ng/mL.

Data set [2] relates to diarrhea-predominant IBS subjects. The data set is described as follows: Study S241.3.006: safety. It counts as in vivo, human. The following applies: for Constipation: human, in vivo, 12 weeks. Here is the method: Safety was evaluated by physical examination, ECG, vital signs, clinical laboratory evaluations, concomitant medications, and AEs. An independent Gastrointestinal Events Review Board (GERB) was established to advise on gastrointestinal (GI) AEs during the course of the study and other safety events as considered necessary.

For data set [3] the test system is unchanged. The data set is described as follows: Study S241.3.011: interruption of activities assessment. The format is in vivo, human. The text has this:
Studies S24 1.3.OO6, S24 1.3.0 1 1, and S24 1.3.009 used the following efficacy measurements: • The subjects answered the following three questions with “yes” or “no” using a phone diary at the end of each week: • a) During the last week, did you experience adequate relief of your IBS symptoms, such as abdominal pain, abdominal discomfort, abnormal bowel habits? • b) During the last week, did you experience adequate relief of your abdominal pain and/or discomfort? • c) During the last week, did you experience adequate relief of your abnormal bowel habits? • The subjects rated the following symptoms using the phone diary at the end of each day: • abdominal pain/discomfort (five-point scale); • stool consistency (seven-point Bristol Stool Scale); • stool frequency (number of bowel movements each day); • urgency (five-point scale); • straining (yes or no); • feeling of incomplete defecation (yes or no); • bloating or feeling of abdominal distension (five-point scale). • In Studies S241 A006 and S241.3.009, subjects completed the IBS-QOL Survey at Baseline (Day 1) and at the end of treatment. In Study S24 1.3.0 1 1, subjects completed the IBS-QOL Survey at Baseline (Day 1), at the end of the three-month treatment period, and at the end of rerandomized treatment.
Other secondary efficacy parameters for all three studies included: • Responder rate for the weekly diary questions on adequate relief at each month, where a responder for a month (monthly responder) was defined as a subject who answered the weekly question with “yes” at least twice for that month. The responder rate was the percentage of responders within a treatment group. The all-month responder rate for the weekly diary questions on adequate relief was also evaluated, where an all-month responder was defined as a subject who answered the weekly question with “yes” at least twice for each month. The all-month responder rate was the percentage of all-month responders within a treatment group; • Adequate relief rate for the weekly diary questions was calculated for each subject as the number of weekly assessments with adequate relief (“yes”) divided by the total number of weekly assessments; • Percentage of subjects with adequate relief for the weekly diary questions at each week; • Daily diary questions regarding abdominal pain/discomfort (five-point scale), stool consistency (seven-point scale), stool frequency (number of bowel movements each day), straining (yes or no), urgency (five-point scale), feeling of incomplete evacuation (yes or no), and bloating or feeling of abdominal distention (five-point scale); • QOL data assessed by the IBS-QOL questionnaire; and • Question to determine the interruption of activities.

Data set [4] has the same test system. The data set is described as follows: Study S241.3.009: safety. The following applies: for Constipation: human, 26 weeks. The format is in vivo, human. More on the design: Incidence of bilirubin increase: dose or concentration left out as unconfirmed. An excerpt:
The primary efficacy parameter was the overall response rate for IBS symptoms, based on the weekly question concerning adequate relief of IBS symptoms (abdominal pain/discomfort, abnormal bowel habits) over the 26 weeks period. A responder was a subject who responded “yes” at least 50% of the time during his/her treatment period, with minimum treatment duration of four weeks. The two main secondary efficacy parameters were overall responder rate based on the weekly question on adequate relief of abdominal pain/discomfort and abnormal bowel habits during the 26-week treatment period. The onset of action of cilansetron was also examined using daily diary data (stool frequency, and ratings of urgency and severity) during the initial 8 weeks of trial participation. An additional key secondary efficacy parameter was the number of months (one month equals four weeks) up to six months (24-weeks) that a subject was a responder for IBS symptoms, where a responder was defined as a subject who answered the weekly question with “yes” at least twice for that month. The responder rate for the weekly diary questions on adequate relief at each month and all months, the adequate relief rate, the number of subjects with adequate relief by week, daily diary questions, IBS-QOL scores, and the interruption of activities were also assessed. Safety was evaluated by physical examination, ECG, vital signs, laboratory evaluations, concomitant medications, and AEs.

One may read the fraction unbound as free concentration divided by total concentration. `Cc1nccn1C[C@H]1CCc2c(c3cccc4c3n2CCC4)C1=O` [Cilansetron, (R)-(−)-4,5,6,8,9,10-hexahydro-10-[(2-methyl-1H-imidazol-1-yl)methyl]-11H-pyrido-[3,2,1-jk]-carbazol-11-one] gave an unbound share (fraction unbound) in the data set “clinical” of 0.055. For the same compound, the Protein bound in data set [1] is reported as 93-96%. Further, the “Number of subjects who died” value in data set [2] (2 mg TID, 352 randomized, S241.3.006) is given as 0 n (%); in data set [4] (2 mg TID, 401 randomized, S241.3.009), 0 n (%). Further, the Constipation in data set [2] (female) is listed as 23%; in data set [2] (male), 8%; in data set [4] (female, in vivo), 17%; in data set [4] (male, in vivo) it was 7%. The “Subjects “not at all or rarely” bothered, rerandomization Endpoint” value in data set [3] (C/C) turned out to be 54%; in data set [3] (C/P), 37%; in data set [3] (P/C), 50%. Besides, the “Subjects “not at all or rarely” bothered by IBS symptoms” value in data set [3] (Endpoint, 3-month period) turned out to be 46%. Also, in data set [4] (in vivo), the Abdominal pain aggravated result is given as “five”. The “Incidence of bilirubin increase” value in data set [4] (in vivo) stood at 8%. Also, the Rectal hemorrhage entry in data set [4] (in vivo) was “three”. In data set [4] (in vivo), the Suspected ischemic colitis result is recorded as “three”.
